Holding throughout (test): Kinase selectivity profile assay
What all share (assay type): biochemical

One test concerns the target T1, ABL2/ARG (Homo sapiens, UniProt P42684).
T1 construct: purchased Reaction Biology Corporation (assay service)
The settings on record: for remaining activity at 0.5 µM: 500 nM, relative to DMSO, read-out: Residual enzymatic activity. A digest of the protocol:
(§1)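 Radiometric kinase assay run by a standard protocol. Unbound phosphate was removed by washing filters in phosphoric acid, and product radioactivity gave percent remaining kinase activity versus DMSO vehicle reactions. Run in duplicate.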

Another test deals with T2, CK1g1 (Homo sapiens, UniProt Q9HCP0).
T2 construct: purchased Reaction Biology Corporation
The settings on record: 500 nM; relative to DMSO; read-out: Residual enzymatic activity. The method, boiled down:
as §1

Another test has as its target T3, ALK3/BMPR1A (Homo sapiens, UniProt P36894).
T3 construct: purchased Reaction Biology Corporation
The settings on record: 500 nM; relative to DMSO; read-out: Residual enzymatic activity. A digest of the protocol:
as §1

Another test concerns the target T4, FLT3 (Homo sapiens, UniProt P36888).
T4 construct: purchased Reaction Biology Corporation (assay service)
T4 sequence (P36888 27-993): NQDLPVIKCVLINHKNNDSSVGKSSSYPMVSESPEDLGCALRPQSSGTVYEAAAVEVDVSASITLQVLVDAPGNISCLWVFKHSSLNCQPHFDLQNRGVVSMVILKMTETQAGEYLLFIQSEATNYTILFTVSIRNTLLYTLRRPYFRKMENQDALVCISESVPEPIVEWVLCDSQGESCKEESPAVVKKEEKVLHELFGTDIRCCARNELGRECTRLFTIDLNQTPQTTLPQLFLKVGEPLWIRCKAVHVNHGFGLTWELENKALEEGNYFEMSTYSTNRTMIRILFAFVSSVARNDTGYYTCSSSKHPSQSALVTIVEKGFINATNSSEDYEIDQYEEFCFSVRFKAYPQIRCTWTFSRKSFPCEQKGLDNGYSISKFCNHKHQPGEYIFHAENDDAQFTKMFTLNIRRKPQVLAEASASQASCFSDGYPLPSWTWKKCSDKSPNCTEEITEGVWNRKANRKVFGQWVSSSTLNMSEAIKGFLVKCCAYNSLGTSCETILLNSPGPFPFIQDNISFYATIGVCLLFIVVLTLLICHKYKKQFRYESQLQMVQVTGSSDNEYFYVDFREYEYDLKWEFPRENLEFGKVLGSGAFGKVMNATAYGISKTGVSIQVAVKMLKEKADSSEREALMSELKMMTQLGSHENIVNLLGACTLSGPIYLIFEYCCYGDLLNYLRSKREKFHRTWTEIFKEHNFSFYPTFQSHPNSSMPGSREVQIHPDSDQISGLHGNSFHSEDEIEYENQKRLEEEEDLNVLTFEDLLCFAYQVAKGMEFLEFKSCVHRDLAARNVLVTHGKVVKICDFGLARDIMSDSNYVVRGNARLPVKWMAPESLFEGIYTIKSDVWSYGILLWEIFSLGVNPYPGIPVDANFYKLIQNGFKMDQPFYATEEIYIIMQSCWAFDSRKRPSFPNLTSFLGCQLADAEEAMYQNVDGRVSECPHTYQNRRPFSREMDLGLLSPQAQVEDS
Particulars: for remaining activity at 0.5 µM: 500 nM, relative to DMSO, read-out: Residual enzymatic activity. The method, boiled down: as §1

Another test addresses T5, LOK/STK10 (Homo sapiens, UniProt O94804).
T5 construct: purchased Reaction Biology Corporation
Particulars: 500 nM; relative to DMSO; read-out: Residual enzymatic activity. A digest of the protocol:
as §1

The target in another test is T6, LCK2/ICK (Homo sapiens, UniProt Q9UPZ9).
T6 construct: purchased Reaction Biology Corporation
The settings on record: 500 nM; relative to DMSO; read-out: Residual enzymatic activity. A digest of the protocol:
as §1

A further test concerns the target T7, PKCmu/PRKD1 (Homo sapiens, UniProt Q15139).
T7 construct: purchased Reaction Biology Corporation
The settings on record: 500 nM; relative to DMSO; read-out: Residual enzymatic activity. A digest of the protocol:
as §1

For a further test, the target named is T8, MEKK2 (Homo sapiens, UniProt Q9Y2U5).
T8 construct: purchased Reaction Biology Corporation
The settings on record: 500 nM; relative to DMSO; read-out: Residual enzymatic activity. A digest of the protocol:
as §1

The next test addresses T9, RSK2 (Homo sapiens, UniProt P51812).
T9 construct: purchased Reaction Biology Corporation
The settings on record: 500 nM; relative to DMSO; read-out: Residual enzymatic activity. The method, boiled down: as §1

Another test concerns the target T10, ALK5/TGFBR1 (Homo sapiens, UniProt P36897).
T10 construct: purchased Reaction Biology Corporation
Particulars: 500 nM; relative to DMSO; read-out: Residual enzymatic activity. A digest of the protocol:
as §1

A further test concerns the target T11, PKCiota (Homo sapiens, UniProt P41743).
T11 construct: purchased Reaction Biology Corporation
The settings on record: 500 nM; relative to DMSO; read-out: Residual enzymatic activity. The method, boiled down:
as §1

The target in another test is T12, PLK4/SAK (Homo sapiens, UniProt O00444).
T12 construct: purchased Reaction Biology Corporation
The settings on record: 500 nM; relative to DMSO; read-out: Residual enzymatic activity. A digest of the protocol:
as §1

The next test deals with T13, JNK3 (Homo sapiens, UniProt P53779).
T13 construct: purchased Reaction Biology Corporation
Particulars: 500 nM; relative to DMSO; read-out: Residual enzymatic activity. The method, boiled down: as §1

The next test addresses T14, EPHA1 (Homo sapiens, UniProt P21709).
T14 construct: purchased Reaction Biology Corporation (assay service)
T14 sequence (P21709 26-976): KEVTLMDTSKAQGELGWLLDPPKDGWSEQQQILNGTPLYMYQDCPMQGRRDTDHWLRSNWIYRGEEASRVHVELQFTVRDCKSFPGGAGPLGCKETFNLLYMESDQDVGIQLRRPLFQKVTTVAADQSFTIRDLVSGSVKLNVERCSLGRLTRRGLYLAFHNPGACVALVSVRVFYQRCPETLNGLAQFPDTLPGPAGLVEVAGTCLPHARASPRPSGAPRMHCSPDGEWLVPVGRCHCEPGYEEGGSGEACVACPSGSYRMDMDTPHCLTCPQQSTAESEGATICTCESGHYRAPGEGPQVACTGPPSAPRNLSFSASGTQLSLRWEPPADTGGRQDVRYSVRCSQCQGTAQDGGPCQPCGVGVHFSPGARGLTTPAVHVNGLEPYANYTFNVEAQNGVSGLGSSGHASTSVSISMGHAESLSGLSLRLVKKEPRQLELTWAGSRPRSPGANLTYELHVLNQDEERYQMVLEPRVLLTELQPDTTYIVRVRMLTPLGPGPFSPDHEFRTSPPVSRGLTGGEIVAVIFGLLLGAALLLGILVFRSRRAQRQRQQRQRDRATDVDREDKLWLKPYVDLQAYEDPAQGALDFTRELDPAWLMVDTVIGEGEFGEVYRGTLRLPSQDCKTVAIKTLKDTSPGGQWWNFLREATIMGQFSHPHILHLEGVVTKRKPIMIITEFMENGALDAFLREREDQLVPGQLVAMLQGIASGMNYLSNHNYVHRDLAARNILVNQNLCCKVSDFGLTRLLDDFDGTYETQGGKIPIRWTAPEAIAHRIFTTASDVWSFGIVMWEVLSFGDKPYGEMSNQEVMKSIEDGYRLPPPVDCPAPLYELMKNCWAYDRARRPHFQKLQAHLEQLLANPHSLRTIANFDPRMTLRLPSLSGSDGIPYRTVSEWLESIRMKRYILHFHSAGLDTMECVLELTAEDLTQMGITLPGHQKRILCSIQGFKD
Particulars: for remaining activity at 0.5 µM: 500 nM, relative to DMSO, read-out: Residual enzymatic activity. A digest of the protocol: as §1

A further test concerns the target T15, TAOK2/TAO1 (Homo sapiens, UniProt Q9UL54).
T15 construct: purchased Reaction Biology Corporation
The settings on record: 500 nM; relative to DMSO; read-out: Residual enzymatic activity. A digest of the protocol:
as §1

[1] abbreviates: 10-dose mode, threefold serial dilution from 10 μM.

The record followed here is paper PMC8632988, “Inhibition of SYK and cSrc kinases can protect bone and cartilage in preclinical models of osteoarthritis and rheumatoid arthritis” (Scientific Reports, 2021).

The structures appear in SMILES notation.

T1 sequence (P42684 whole entry): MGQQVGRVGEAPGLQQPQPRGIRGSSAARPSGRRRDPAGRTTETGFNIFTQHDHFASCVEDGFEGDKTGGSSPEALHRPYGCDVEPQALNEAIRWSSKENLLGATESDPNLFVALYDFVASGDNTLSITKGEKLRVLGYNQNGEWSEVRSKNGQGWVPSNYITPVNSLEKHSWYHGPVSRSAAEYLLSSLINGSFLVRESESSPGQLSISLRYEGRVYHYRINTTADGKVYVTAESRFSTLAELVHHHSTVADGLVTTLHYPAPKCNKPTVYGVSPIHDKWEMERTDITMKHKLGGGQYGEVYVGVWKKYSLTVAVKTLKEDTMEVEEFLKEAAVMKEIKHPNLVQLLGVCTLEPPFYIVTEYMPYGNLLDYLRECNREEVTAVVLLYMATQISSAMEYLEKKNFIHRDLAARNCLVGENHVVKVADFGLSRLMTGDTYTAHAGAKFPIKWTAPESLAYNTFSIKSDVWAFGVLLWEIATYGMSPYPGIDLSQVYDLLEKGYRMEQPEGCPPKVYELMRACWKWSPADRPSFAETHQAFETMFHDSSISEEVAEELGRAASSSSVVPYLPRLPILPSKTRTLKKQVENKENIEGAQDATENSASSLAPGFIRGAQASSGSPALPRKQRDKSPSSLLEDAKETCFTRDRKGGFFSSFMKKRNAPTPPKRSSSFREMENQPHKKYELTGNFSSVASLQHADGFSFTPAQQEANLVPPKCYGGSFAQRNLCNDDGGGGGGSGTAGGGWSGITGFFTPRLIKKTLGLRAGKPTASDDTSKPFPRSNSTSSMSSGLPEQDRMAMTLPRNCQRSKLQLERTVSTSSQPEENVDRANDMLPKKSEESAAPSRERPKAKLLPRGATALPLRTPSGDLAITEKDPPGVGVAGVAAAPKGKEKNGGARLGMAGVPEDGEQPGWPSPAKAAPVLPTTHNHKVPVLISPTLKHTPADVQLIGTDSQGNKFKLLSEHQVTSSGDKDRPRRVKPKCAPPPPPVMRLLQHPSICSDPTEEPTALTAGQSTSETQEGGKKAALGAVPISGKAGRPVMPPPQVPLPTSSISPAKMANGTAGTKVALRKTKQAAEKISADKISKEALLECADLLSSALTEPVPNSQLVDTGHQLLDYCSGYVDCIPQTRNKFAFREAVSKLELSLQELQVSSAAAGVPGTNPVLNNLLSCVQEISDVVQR
T7 sequence (Q15139 whole entry): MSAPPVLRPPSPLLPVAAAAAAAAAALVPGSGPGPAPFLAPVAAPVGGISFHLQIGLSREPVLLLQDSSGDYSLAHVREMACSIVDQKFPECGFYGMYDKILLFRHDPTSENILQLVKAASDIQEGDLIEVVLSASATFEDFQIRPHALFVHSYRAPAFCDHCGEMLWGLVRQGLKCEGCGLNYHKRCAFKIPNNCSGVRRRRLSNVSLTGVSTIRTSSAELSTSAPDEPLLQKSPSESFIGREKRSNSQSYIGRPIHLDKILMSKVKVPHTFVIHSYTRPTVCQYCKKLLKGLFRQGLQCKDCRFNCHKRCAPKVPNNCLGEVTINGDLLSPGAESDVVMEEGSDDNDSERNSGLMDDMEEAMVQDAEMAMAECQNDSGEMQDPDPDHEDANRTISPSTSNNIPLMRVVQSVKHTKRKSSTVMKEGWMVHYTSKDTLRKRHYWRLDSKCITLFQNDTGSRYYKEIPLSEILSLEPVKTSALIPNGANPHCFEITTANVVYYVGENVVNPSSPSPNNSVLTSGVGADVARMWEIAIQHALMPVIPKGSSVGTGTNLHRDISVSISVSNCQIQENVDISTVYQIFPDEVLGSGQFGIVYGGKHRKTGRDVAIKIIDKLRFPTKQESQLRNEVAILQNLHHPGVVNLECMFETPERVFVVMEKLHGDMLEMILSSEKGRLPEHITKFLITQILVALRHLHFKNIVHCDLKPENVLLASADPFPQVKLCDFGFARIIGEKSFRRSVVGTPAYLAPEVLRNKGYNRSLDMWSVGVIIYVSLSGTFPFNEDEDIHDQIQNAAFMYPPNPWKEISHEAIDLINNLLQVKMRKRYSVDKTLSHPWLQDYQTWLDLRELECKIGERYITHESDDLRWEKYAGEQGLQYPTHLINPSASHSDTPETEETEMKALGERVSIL
T2 sequence (Q9HCP0 whole entry): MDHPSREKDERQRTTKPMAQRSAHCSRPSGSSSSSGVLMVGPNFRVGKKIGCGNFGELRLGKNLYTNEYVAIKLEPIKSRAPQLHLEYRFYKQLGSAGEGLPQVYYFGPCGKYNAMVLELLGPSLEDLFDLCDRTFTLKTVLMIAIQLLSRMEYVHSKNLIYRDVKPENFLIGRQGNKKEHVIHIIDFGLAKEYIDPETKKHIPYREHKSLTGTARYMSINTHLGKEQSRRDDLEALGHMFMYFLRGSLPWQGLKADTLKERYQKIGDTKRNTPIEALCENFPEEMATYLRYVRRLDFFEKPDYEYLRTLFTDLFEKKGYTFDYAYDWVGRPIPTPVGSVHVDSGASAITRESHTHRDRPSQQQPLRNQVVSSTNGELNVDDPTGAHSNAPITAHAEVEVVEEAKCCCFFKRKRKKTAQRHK
T12 sequence (O00444 whole entry): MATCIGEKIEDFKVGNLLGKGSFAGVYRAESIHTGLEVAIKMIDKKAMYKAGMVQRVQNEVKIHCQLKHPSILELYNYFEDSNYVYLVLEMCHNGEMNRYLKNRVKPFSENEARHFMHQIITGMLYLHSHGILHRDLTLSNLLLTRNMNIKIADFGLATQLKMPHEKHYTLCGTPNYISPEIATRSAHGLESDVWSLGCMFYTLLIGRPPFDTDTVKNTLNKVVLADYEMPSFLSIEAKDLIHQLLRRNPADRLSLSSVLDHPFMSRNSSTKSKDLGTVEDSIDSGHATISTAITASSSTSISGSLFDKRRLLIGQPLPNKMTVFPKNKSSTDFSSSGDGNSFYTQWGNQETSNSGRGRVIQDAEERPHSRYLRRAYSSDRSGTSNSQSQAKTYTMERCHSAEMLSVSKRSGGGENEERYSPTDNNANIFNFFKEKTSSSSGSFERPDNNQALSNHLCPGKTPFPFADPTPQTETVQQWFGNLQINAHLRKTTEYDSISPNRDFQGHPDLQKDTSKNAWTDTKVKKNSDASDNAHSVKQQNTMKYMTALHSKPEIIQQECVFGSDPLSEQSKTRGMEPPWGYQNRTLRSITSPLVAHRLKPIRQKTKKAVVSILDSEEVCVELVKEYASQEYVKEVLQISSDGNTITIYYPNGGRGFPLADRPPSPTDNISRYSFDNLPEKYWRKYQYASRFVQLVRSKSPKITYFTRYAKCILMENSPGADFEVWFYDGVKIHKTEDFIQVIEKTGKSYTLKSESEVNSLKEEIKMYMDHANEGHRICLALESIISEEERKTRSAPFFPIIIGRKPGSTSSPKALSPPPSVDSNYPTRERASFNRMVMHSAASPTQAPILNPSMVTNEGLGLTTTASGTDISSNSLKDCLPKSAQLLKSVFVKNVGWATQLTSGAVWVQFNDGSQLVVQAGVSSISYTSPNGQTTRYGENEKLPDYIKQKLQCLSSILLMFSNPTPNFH
T6 sequence (Q9UPZ9 whole entry): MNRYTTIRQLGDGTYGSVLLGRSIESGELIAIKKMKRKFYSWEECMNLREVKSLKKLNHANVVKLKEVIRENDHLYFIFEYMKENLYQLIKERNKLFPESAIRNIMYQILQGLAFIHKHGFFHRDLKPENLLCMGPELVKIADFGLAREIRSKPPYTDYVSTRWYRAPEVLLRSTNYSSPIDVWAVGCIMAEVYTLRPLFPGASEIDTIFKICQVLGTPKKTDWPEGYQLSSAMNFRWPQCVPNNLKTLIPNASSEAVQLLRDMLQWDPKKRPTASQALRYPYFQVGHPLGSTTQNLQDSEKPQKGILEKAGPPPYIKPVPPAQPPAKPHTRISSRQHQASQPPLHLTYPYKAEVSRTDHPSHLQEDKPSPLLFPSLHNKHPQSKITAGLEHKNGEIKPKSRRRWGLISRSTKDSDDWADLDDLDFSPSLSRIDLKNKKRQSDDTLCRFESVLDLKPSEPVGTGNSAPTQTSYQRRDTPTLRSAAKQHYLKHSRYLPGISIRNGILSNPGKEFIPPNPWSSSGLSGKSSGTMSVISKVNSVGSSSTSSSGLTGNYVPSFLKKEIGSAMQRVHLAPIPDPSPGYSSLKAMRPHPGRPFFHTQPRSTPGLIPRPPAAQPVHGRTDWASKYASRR
T10 sequence (P36897 34-503): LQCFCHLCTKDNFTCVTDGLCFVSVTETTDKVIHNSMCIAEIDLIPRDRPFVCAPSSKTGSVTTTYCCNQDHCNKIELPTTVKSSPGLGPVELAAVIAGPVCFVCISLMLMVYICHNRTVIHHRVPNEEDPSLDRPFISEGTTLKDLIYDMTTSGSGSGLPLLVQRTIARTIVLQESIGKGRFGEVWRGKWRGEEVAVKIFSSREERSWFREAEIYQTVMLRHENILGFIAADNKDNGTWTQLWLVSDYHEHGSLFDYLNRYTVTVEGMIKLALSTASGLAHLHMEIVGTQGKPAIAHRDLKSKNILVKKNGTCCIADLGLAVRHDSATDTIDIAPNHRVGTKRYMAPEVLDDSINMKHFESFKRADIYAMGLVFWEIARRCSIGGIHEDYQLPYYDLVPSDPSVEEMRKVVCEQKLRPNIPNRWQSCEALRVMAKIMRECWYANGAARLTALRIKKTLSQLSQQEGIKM
T13 sequence (P53779 whole entry): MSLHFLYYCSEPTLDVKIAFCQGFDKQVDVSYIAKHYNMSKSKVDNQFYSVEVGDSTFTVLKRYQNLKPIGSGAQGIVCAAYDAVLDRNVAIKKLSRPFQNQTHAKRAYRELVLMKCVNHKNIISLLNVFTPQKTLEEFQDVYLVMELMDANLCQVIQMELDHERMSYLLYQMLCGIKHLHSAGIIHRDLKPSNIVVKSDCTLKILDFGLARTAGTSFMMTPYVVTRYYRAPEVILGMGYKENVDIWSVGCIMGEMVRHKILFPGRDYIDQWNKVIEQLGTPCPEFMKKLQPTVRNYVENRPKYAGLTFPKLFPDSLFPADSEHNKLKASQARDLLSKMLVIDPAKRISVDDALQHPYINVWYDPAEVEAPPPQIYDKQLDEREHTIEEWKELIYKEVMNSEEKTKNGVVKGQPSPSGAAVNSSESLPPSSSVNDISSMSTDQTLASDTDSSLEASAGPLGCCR

As to `COc1cc(Nc2ncc(F)c(Nc3ccc4c(n3)NC(=O)C(C)(C)O4)n2)cc(OC)c1OC` [R406, reference compound], the remaining activity at 0.5 µM on ABL2/ARG came to 34.5%; at CK1g1, 92.7%; at ALK3/BMPR1A, 120%; at FLT3 it was 6.2%; at LOK/STK10 it was 37.4%; on LCK2/ICK, 99.8%. Also, the remaining activity at 0.5 µM at PKCmu/PRKD1 stood at 82.1%; at MEKK2 it was 56.8%; at RSK2, 56.9%; on ALK5/TGFBR1, 108%; on PKCiota, 103%; on PLK4/SAK it was 17.2%. Besides, the figures for the remaining activity at 0.5 µM on JNK3, at EPHA1 and on TAOK2/TAO1 were 114%, 25.4% and 47.4%, respectively.
As for `COc1cc(Nc2ncnc(Nc3cc4c(cn3)NC(=O)C(C)(C)O4)n2)cc(OC)c1OC` [MT-SYK-03], the remaining activity at 0.5 µM was determined as 32.3% at ABL2/ARG; 93.5% at CK1g1; 130% at ALK3/BMPR1A; 5.7% on FLT3; 75.7% on LOK/STK10; 110% on LCK2/ICK. The remaining activity at 0.5 µM was found to be 98.5% on PKCmu/PRKD1; 106% at MEKK2; 104% on RSK2; 104% on ALK5/TGFBR1; 102% on PKCiota; 77.8% at PLK4/SAK. The figures for the remaining activity at 0.5 µM on JNK3, on EPHA1 and at TAOK2/TAO1 were 96.4%, 48.3% and 105%, respectively. The 50% inhibitory concentration (IC50) at ABL2/ARG (setting [1]) was 120 nM; against FLT3 (setting [1]), 23 nM; against EPHA1 (setting [1]), 457 nM.
